Assay results as given in PMC9943626, “CS27109, A Selective Thyroid Hormone Receptor-β Agonist Alleviates Metabolic-Associated Fatty Liver Disease in Murine Models” (International Journal of Endocrinology, 2023).
Like-named read-outs stand apart in the source and are kept apart here.

Assays:
[1] = test system: WD + CCL4 mouse model; experiment: WD + CCL4 mouse model, biochemical, liver weight ratio and liver pathology; type: in vivo, C57/B6 mouse; conditions: for LDL-c / TG / HDL-c / TC / CK activity / AST / ALT: WD + CCL4 mouse serum; for LDL-c / TG / HDL-c / TC / CK activity / AST / ALT / L/B (liver/body weight ratio): mean ± SD; for LDL-c: model 1.1 ± 0.35, normal 0.43 ± 0.04; for TG: model 1.2 ± 0.34, normal 0.91 ± 0.14; for HDL-c: model 1.5 ± 0.25, normal 2.0 ± 0.08; for TC: model 4.1 ± 0.97, normal 3.0 ± 0.10; for CK activity: model 345 ± 268, normal 334 ± 193; for AST: model 10245 ± 4955, normal 116 ± 71; for ALT: model 14003 ± 4205, normal 54 ± 15; for L/B (liver/body weight ratio): model 3.5 ± 0.27, normal 3.5 ± 0.27
Protocol: C57/B6 mouse study: 61 C57/B6 mice ♂ aged 6–7 weeks were purchased from Beijing Vital River Laboratory Animal Technology Co., Ltd. Six animals were kept with a chow diet as normal control, and the other 55 animals were fed 60% fat diet (Western diet, D12492, Research diet) as the model group. […] Animals in the normal and model groups were given solvent by oral gavage. All drugs, including solvent, were administered consecutively for 4 weeks and once a day. After sacrifice, blood was collected and serum was isolated for the AST, ALT, TG, TC, LDL-c, HDL-c, and CK tests, and the livers were weighed to calculate the liver weight ratio. The left lobe of the liver of each mouse was collected for hematoxylin-eosin staining (H and E staining) and sirius red staining.
(§1) The liver samples were fixed in 10% formalin and embedded in paraffin using standard methods. The 4 μm paraffin sections were then assessed for liver histology by H and E staining and liver fibrosis by sirius red staining. The stained sections were panoramic scanned with a NanoZoomer Digital Pathology scanner (S210, Hamamatsu, Japan), and then observed with different visual fields at different magnifications, and scored for different liver lobes in the sections. The total NAS score represents the sum of the scores for steatosis (0–3), lobular inflammation (0–3), and ballooning (0–2), and ranges from 0–8 [30]. VIS7.0 software was used to analyze the area of liver fibrosis in the panoramic scanning SR staining sections, and the percentage of liver fibrosis area in the whole section area was calculated.

[2] = Observation of diarrhea in treated animals; type: in vivo, rodents; conditions: animal studies
[3] = test system: HFD SD rat model; experiment: HFD SD rat model, biochemical, organ weight ratio, liver lipid and liver pathology; type: in vivo; conditions: for Liver TC / Liver TG: HFD SD rat liver; for Liver TC / Liver TG / TG / HDL-c / LDL-c / TC / ALT / AST / H/B (heart/body weight ratio) / L/B (liver/body weight ratio): mean ± SD; for Liver TC: model 13 ± 2.2, normal 6.0 ± 0.76; for Liver TG: model 102 ± 36, normal 0.75 ± 12; for TG / HDL-c / LDL-c / TC / ALT / AST: HFD SD rat serum; for TG: model 0.82 ± 0.73, normal 0.53 ± 0.34; for HDL-c: model 1.2 ± 0.44, normal 1.1 ± 0.13; for LDL-c: model 9.7 ± 6.1, normal 0.28 ± 0.06; for TC: model 20 ± 13, normal 1.5 ± 0.20; for ALT: model 166 ± 95, normal 32 ± 6.8; for AST: model 365 ± 212, normal 103 ± 21; for H/B (heart/body weight ratio): model 0.24 ± 0.02, normal 0.28 ± 0.02; for L/B (liver/body weight ratio): model 5.1 ± 0.75, normal 2.8 ± 0.26
Protocol: SD rat study: 58 SD rats ♂ aged 5–6 weeks were purchased from Beijing Huafukang Biotechnology Co., Ltd. 9 animals were kept with a food control diet as normal control, and the other 49 animals were fed 40% fat, 1.25% cholesterol and 0.5% sodium cholate (HFD, D12109C, SYSE BIO, Changzhou, China) as a model group. […] Animals in the normal and model groups were given solvent by oral gavage. All drugs, including solvent, were administered consecutively for 4 weeks and once a day. After sacrifice, blood was collected and serum was isolated for the AST, ALT, TG, TC, LDL-c, and HDL-c test, and livers and hearts were weighed to calculate the liver weight ratio and the heart weight ratio, respectively. The right lobe of the liver of each rat was harvested for the TG and TC test (A110-1-1 and A111-1-1, Nanjing Jiancheng Institute of Bioengineering, Nanjing, China) according to the manufacturer's instructions. The left lobe of the liver was collected for hematoxylin-eosin staining (H and E staining) to quantify liver steatosis, inflammation, and ballooning.
as §1

[4] = test system: HFD-CHOL hamster model; experiment: HFD-CHOL hamster model, serum biochemical test; type: in vivo, golden hamster; conditions: mean ± SD; for HDL-c: model 3.6 ± 1.1, normal 1.6 ± 0.45; for LDL-c: model 17 ± 6.1, normal 1.3 ± 0.54; for TG: model 26 ± 24, normal 2.1 ± 1.1; for TC: model 37 ± 13, normal 3.1 ± 0.72; for ALT: model 278 ± 174, normal 94 ± 58; for AST: model 638 ± 323, normal 98 ± 45
Protocol: Hamster study: 58 golden hamsters ♂ aged 6–8 weeks were purchased from Beijing Vital River Laboratory Animal Technology Co., Ltd. 10 animals were kept with a diet of food control as normal control, and the other 48 animals were fed 40% fat and 1.25% cholesterol (HFD-CHOL, D12108C, Research diet) as a model group. […] Animals in the normal and model group were given solvent by oral gavage. All drugs, including solvent, were administered consecutively for 4 weeks and once a day. After sacrifice, blood was collected and serum was isolated for the AST, ALT, TG, TC, LDL-c, and HDL-c test.

[5] = Tissue distribution in SD rat; type: in vivo; conditions: for concentration at 2 h / concentration at 8 h: male, 10 mg/kg oral gavage once
Text: [Worded in the source for another organism; this organism is reported under the same test.] Half of mice for each group (n = 3) were sacrificed 2H and 8H after drug administration, respectively. Blood, heart, and liver were collected at each time point. Blood was processed and detected as mentioned previously. The heart and liver were homogenized and added extractant. The protein of tissue samples was precipitated by vortex oscillation, and the supernatant was collected and determined by LC-MS/MS procedures.

[6] = 3 mg/kg (L) oral once a day 4 weeks
[7] = 10 mg/kg (CS27109-M, MGL-3196) oral once a day 4 weeks
[8] = 30 mg/kg (H) oral once a day 4 weeks
[9] = WD + CCL4 mouse, 4 weeks, MGL3196 10 mg/kg, CS27109 high-dose (30 mg/kg), vs model
[10] = 5 mg/kg (L) oral once a day 4 weeks
[11] = 15 mg/kg (CS27109-M, MGL-3196) oral once a day 4 weeks
[12] = 45 mg/kg (H) oral once a day 4 weeks
[13] = HFD SD rat, 5 mg/kg (L) oral once a day 4 weeks
[14] = HFD SD rat, 15 mg/kg (CS27109-M, MGL-3196) oral once a day 4 weeks
[15] = HFD SD rat, 45 mg/kg (H) oral once a day 4 weeks
[16] = heart, read-out: Heart concentration
[17] = liver, read-out: Liver concentration
[18] = serum, read-out: Serum concentration

## N#Cc1nn(-c2cc(Br)c(Oc3n[nH]c(=O)c4ccccc34)c(Br)c2)c(=O)[nH]c1=O [CS27109]
[1]; [6]
  LDL-c: 0.40 ± 0.10 mmol/L
  TG: 1.2 ± 0.34 mmol/L
  HDL-c: 0.85 ± 0.24 mmol/L
  TC: 2.3 ± 0.40 mmol/L
  CK activity: 331 ± 386 U/L
  AST: 13447 ± 6633 U/L
  ALT: 19162 ± 4012 U/L
[1]; [7]
  LDL-c: 0.37 ± 0.07 mmol/L
  TG: 1.2 ± 0.19 mmol/L
  HDL-c: 0.94 ± 0.25 mmol/L
  TC: 2.2 ± 0.36 mmol/L
  CK activity: 201 ± 95 U/L
  AST: 4804 ± 1121 U/L
  ALT: 10478 ± 2131 U/L
[1]; [8]
  LDL-c: 0.39 ± 0.11 mmol/L
  TG: 1.2 ± 0.18 mmol/L
  HDL-c: 1.2 ± 0.31 mmol/L
  TC: 2.4 ± 0.48 mmol/L
  CK activity: 280 ± 147 U/L
  AST: 3660 ± 1208 U/L
  ALT: 7832 ± 2422 U/L
[1]; [9]
  liver inflammation score (H and E): notable reduction
  liver steatosis score (H and E): notable reduction
[1]; WD + CCL4 mouse, 4 weeks, only low-dose CS27109 (3 mg/kg), vs model
  liver ballooning score (H and E): significantly reduced liver ballooning
[1]; WD + CCL4 mouse, 4 weeks, three doses of CS27109 (3, 10, 30 mg/kg), MGL3196 10 mg/kg, vs model
  area of liver fibrosis (sirius red): prominently reduced the area of the fibrosis
[1]; WD + CCL4 mouse, 3 mg/kg (L) oral once a day 4 weeks
  L/B (liver/body weight ratio): 3.3 ± 0.40%
[1]; WD + CCL4 mouse, 10 mg/kg (CS27109-M, MGL-3196) oral once a day 4 weeks
  L/B (liver/body weight ratio): 3.2 ± 0.68%
[1]; WD + CCL4 mouse, 30 mg/kg (H) oral once a day 4 weeks
  L/B (liver/body weight ratio): 3.2 ± 0.79%
[2]
  diarrhea in treated animals: rarely observed
[3]; [10]
  Liver TC: 11 ± 1.1 µmol/g
  Liver TG: 71 ± 28 µmol/g
  TG: 0.19 ± 0.08 mmol/L
  HDL-c: 0.78 ± 0.18 mmol/L
  LDL-c: 1.6 ± 0.74 mmol/L
  TC: 4.4 ± 1.8 mmol/L
  ALT: 85 ± 34 U/L
  AST: 213 ± 78 U/L
[3]; [11]
  Liver TC: 10 ± 0.74 µmol/g
  Liver TG: 54 ± 24 µmol/g
  TG: 0.22 ± 0.06 mmol/L
  HDL-c: 0.98 ± 0.32 mmol/L
  LDL-c: 0.84 ± 0.44 mmol/L
  TC: 2.9 ± 0.98 mmol/L
  ALT: 68 ± 24 U/L
  AST: 218 ± 82 U/L
[3]; [12]
  Liver TC: 10 ± 2.2 µmol/g
  Liver TG: 69 ± 21 µmol/g
  TG: 0.20 ± 0.08 mmol/L
  HDL-c: 1.0 ± 0.30 mmol/L
  LDL-c: 0.59 ± 0.32 mmol/L
  TC: 2.3 ± 0.65 mmol/L
  ALT: 89 ± 50 U/L
  AST: 253 ± 131 U/L
[3]; HFD SD rat, 4 weeks, CS27109 5-45 mg/kg dose-dependent, MGL3196 15 mg/kg, vs model
  liver steatosis score (H and E): lessened steatosis
[3]; HFD SD rat, 4 weeks, CS27109 5-45 mg/kg, MGL3196 15 mg/kg, vs model
  liver inflammation score (H and E): dose-dependently reduced liver inflammation, but without a significant effect
[3]; HFD SD rat, 4 weeks, high dose CS27109 (45 mg/kg) only, vs model
  NAS score: decreased the NAS score
[3]; [13]
  H/B (heart/body weight ratio): 0.27 ± 0.03%
  L/B (liver/body weight ratio): 4.0 ± 0.52 %
[3]; [14]
  H/B (heart/body weight ratio): 0.28 ± 0.02 %
  L/B (liver/body weight ratio): 4.1 ± 0.56 %
[3]; [15]
  H/B (heart/body weight ratio): 0.27 ± 0.02%
  L/B (liver/body weight ratio): 3.9 ± 0.54 %
[4]; [6]
  HDL-c: 2.6 ± 0.62 mmol/L
  LDL-c: 13 ± 4.3 mmol/L
  TG: 32 ± 31 mmol/L
  TC: 29 ± 8.6 mmol/L
  ALT: 226 ± 104 U/L
  AST: 564 ± 317 U/L
[4]; [7]
  HDL-c: 3.0 ± 0.52 mmol/L
  LDL-c: 12 ± 3.8 mmol/L
  TG: 17 ± 26 mmol/L
  TC: 25 ± 7.4 mmol/L
  ALT: 141 ± 133 U/L
  AST: 582 ± 383 U/L
[4]; [8]
  HDL-c: 2.6 ± 0.53 mmol/L
  LDL-c: 8.7 ± 4.1 mmol/L
  TG: 11 ± 19 mmol/L
  TC: 19 ± 7.9 mmol/L
  AST: 416 ± 158 U/L
[5]; 10 mg/kg oral, average of 2H and 8H
  average of concentration liver/heart: 26.69
[5]; [16]
  concentration at 2 h: 95.7 ng/g
  concentration at 8 h: 309 ng/g
[5]; [17]
  concentration at 2 h: 1670 ng/g
  concentration at 8 h: 11100 ng/g
[5]; [18]
  concentration at 2 h: 670 ng/mL
  concentration at 8 h: 3620 ng/mL
